Measured values from patent publication EP4817688A2, “DEGRADING PKCß1 TO TREAT CANCER” (Mayo Foundation for Medical Education and Research, priority 2020, dated 2022).
Where “and” joins values, the source holds several entries; their conditions need not be identical. Identical values can stand only once. Like-named read-outs stand apart in the source and are kept apart here.

Key:
BT549 cells = assay: crystal violet (CV) proliferation assay, BT549; format: cell-based; conditions: Homo sapiens, BT-549, BT549 (PKCβ1^high, Rb^regative) 2000 cells
Method: (§1) Cell proliferation rates were determined using crystal violet assays. One thousand cells per well were plated in 96 well tissue culture plates and treated the following day with a bifunctional compound or control for 7 days in replicates of 8. Cells were fixed with 25% glutaraldehyde for 10 minutes with shaking, washed 5 times with distilled water, stained with a 1% crystal violet solution (solubilized in 25% methanol) for 10 minutes, washed again 5 times and allowed to dry. De-staining was performed using […] sodium citrate in 50% ethanol followed by quantification using a 96 well spectrophotometer set at an absorbance of 550 nm.

[1] = system: Rb-proficient MDAMB231 and Rb-deficient BT549 and MDAMB436 cells; assay: crystal violet (CV) proliferation assay, TNBC cells (text statements covering several lines); format: cell-based; conditions: MDAMB231 and BT549 cells (FIG. 4A and TABLE 1)
Method: as §1

MDAH-2774 cells = assay: crystal violet (CV) proliferation assay, MDAH-2774; format: cell-based; conditions: Homo sapiens; MDAH-2774 (PKCβ1^high) 1000 cells/well; read-out: Approximate IC50
Method: as §1
Based on the potent anti-proliferative activity of ENDX-PROTACs TC-Pr-006, TC-Pr-007, TC-Pr -008, and TC-Pr -009 in TNBC cells, the efficacy of these compounds for inhibiting the growth of ovarian cancer cells was tested. This analysis utilized KURAMOCHI cells, which represent the high-grade serous subtype (the most malignant form that accounts for 70% of all ovarian cancers and associates with poor clinical outcome) and MDAH-2774 cells, which represent endometrioid ovarian cancer and accounts for 20% of all ovarian cancer. PKCβ1 was confirmed to be expressed in both ovarian cancer cell line models, with MDAH-2774 cells expressing higher amounts of PKCβ1 compared to KURAMOCHI cells (FIG. 5A). […]

[2] = pharmacokinetics in female CD1 mice, plasma by UPLC-MS/MS; format: in vivo; conditions: for Tmax: read-out: time of peak plasma concentration (converted); for half-life: read-out: terminal half-life (converted); for Concentration ENDX PROTAC 9: listed as ENDX PROTAC 9, 1 mg/kg
Method: ENDX PROTAC 7 and PROTAC 9 pharmacokinetics were characterized in female CD1 mice. Blood samples were collected from mice anesthetized under isoflurane via retro-orbital eye bleed into tubes containing EDTA and immediately chilled on ice. NaF was added to the EDTA collection tubes to help stabilize the drug in whole blood for the second IV and IP studies with ENDX PROTAC 9, and for the IV and oral studies with PROTAC 7. Plasma and red blood cells were separated immediately by centrifugation in a refrigerated centrifuge at 4°C. The plasma was transferred to a separate tube and immediately frozen at -20°C.
For IV dosing, ENDX PROTAC 9 was dissolved in 10% DMSO, 10% PEG 400, and 80% normal saline for a final concentration of 0.2 mg/mL ENDX PROTAC 9 for the 1 mg/kg IV doses. ENDX PROAC 7 was dissolved in 15% DMSO, 9.44% PEG400, and 55% normal saline for a final concentration of 0.19 mg/mL for the 1 mg/kg IV doses. Blood samples (3 mice per time-point) were collected 5 minutes, 15 minutes, 0.5 hour, 1 hour, 2 hours, 4 hours, 8 hours, and 24 hours after administration of the ENDX PROTAC. […] For oral dosing, ENDX PROTAC 9 (10 mg/kg) and ENDX PROTAC 7 (10 mg/kg) were suspended in 1 mM ascorbic acid:PEG400, 1:1 v/v for a final concentration of 1.0 mg/mL ENDX PROTAC. Blood samples (three mice per time-point) were collected 15 minutes, 0.5 hour, 1 hour, 2 hours, 4 hours, 6 hours, 8 hours, and 24 hours after administering the ENDX PROTAC. For I.P. dosing, ENDX PROTAC 9 (4 mg/kg) was prepared in 1 mM ascorbic acid:PEG400, 1:1 v/v for a final concentration of 0.4 mg/mL ENDX PROTAC 9. Blood samples (three mice per time-point) were collected 15 minutes, 0.5 hour, 1 hour, 2 hours, 4 hours, 6 hours, 8 hours, and 24 hours after administration. Plasma concentrations of ENDX PROTAC 7 and 9 were measured using UPLC-MS/MS.

[3] = mouse, plasma, iv, 1 mg/kg, I.V. 1 mg/kg, first study without NaF
[4] = mouse, plasma, iv, 1 mg/kg, I.V. 1 mg/kg, second study with NaF

- IC50 (BT549 cells): 67 nM
- stability in whole blood ([2]; inferred from IV studies with and without NaF): unstable in whole blood
- Cmax ([2]; mouse, plasma, ip, 4 mg/kg, I.P. 4 mg/kg, read-out: peak plasma concentration): 135 ng/mL
- bioavailability ([2]; mouse, plasma, ip, I.P. 4 mg/kg, read-out: bioavailability of the I.P. dose): 225%
- Tmax ([2]; mouse, plasma, ip, I.P. 4 mg/kg): 30 min
- clearance [2, 3]: 730 mL/min/kg
- half-life [2, 3]: 60 min
- Cmax ([2]; mouse, plasma, iv, 1 mg/kg, I.V. 1 mg/kg, samples collected without added NaF, read-out: peak plasma concentration): 47.2 ng/mL
- clearance [2, 4]: 478 mL/min/kg
- half-life [2, 4]: 39.6 min
- Cmax ([2]; mouse, plasma, iv, 1 mg/kg, I.V. 1 mg/kg, second study, NaF added to EDTA tubes, read-out: peak plasma concentration): 70.9 ng/mL
- concentration at 0.5 h ([2]; mouse, plasma, iv, 1 mg/kg, plasma, IV 1 mg/kg, EDTA without NaF, 30 minutes, individual mice, read-out: Concentration ENDX PROTAC 9): 1.81 ng/mL
- concentration at 0.5 h ([2]; mouse, plasma, iv, 1 mg/kg, plasma, IV 1 mg/kg, all data (both IV studies), 30 minutes, read-out: Concentration ENDX PROTAC 9): 2.83 ng/mL
- Tmax ([2]; mouse, plasma, iv, I.V. 1 mg/kg, samples collected without added NaF): 5 min
- Cmax ([2]; mouse, plasma, po, 10 mg/kg, oral 10 mg/kg, read-out: average peak plasma concentration): 11.1 ng/mL
- concentration at 0.5 h ([2]; mouse, plasma, po, 10 mg/kg, plasma, PO 10 mg/kg, 30 minutes, individual mice, read-out: Concentration ENDX PROTAC 9): 0.74 ng/mL
- concentration at 8 h ([2]; mouse, plasma, po, 10 mg/kg, plasma, PO 10 mg/kg, 480 minutes, individual mice, read-out: Concentration ENDX PROTAC 9): 0.08 ng/mL
- concentration at 0.25 h ([2]; mouse, plasma, po, 10 mg/kg, plasma, TABLE 7, titled PO pk (10 mg/kg), 15 minutes, individual mice, read-out: Concentration ENDX PROTAC 9): 108 ng/mL
- concentration at 0.5 h ([2]; mouse, plasma, po, 10 mg/kg, plasma, TABLE 7, titled PO pk (10 mg/kg), 30 minutes, individual mice, read-out: Concentration ENDX PROTAC 9): 166 ng/mL
- concentration at 1 h ([2]; mouse, plasma, po, 10 mg/kg, plasma, TABLE 7, titled PO pk (10 mg/kg), 60 minutes, individual mice, read-out: Concentration ENDX PROTAC 9): 131 ng/mL
- bioavailability ([2]; mouse, plasma, oral 10 mg/kg vs IV 1 mg/kg, read-out: Oral bioavailability): 8.8%
- Tmax ([2]; mouse, plasma, oral 10 mg/kg): 60 min
- Concentration ENDX PROTAC 9 ([2]; plasma, IV 1 mg/kg, EDTA without NaF, 30 minutes, individual mice): 1.662 ng/mL
Compound: CCC(=C(c1ccc(O)cc1)c1ccc(OCCN(C)C(=O)COCCOCCNC(=O)Cc2ccc3c(c2)CN(C2CCC(=O)NC2=O)C3=O)cc1)c1ccccc1 (stereo not drawn) [TC-Pr-009, 2-[2-(2-2-[2-(2,6-dioxopiperidin-3-yl)-1-oxo-2,3-dihydro-1H-isoindol-5-yl]acetamidoethoxy)ethoxy]-N-(2-4-[1-(4-hydroxyphenyl)-2-phenylbut-1-en-1-yl]phenoxyethyl)-N-methylacetamide]
- apoptosis [1]: induced apoptosis
- IC50 (MDAH-2774 cells): 1 to 10 µM
- Concentration ENDX PROTAC 9 ([2]; plasma, IV 1 mg/kg, EDTA without NaF, 5 minutes, individual mice): 49.449 ng/mL and 47.9659 ng/mL and 12.7855 ng/mL
- Concentration ENDX PROTAC 9 ([2]; plasma, IV 1 mg/kg, EDTA without NaF, 15 minutes, individual mice): 44.1034 ng/mL and 9.4992 ng/mL and 7.241 ng/mL
